# Laboratory results published in US20070128217A1 (priority 2003, published 2007).
# Legend:
# [1] = system: rabbit serum obtained by immunizing a rabbit with the SARS-CoV strain Frankfurt 1; format: binding; parameters: Binding of a rabbit serum to linear peptides / Binding of a rabbit serum to looped peptides / Rabbit serum linear peptides / Rabbit serum looped peptides / Binding of a rabbit serum to linear peptides of protein N of SARS-CoV Urbani (Rabbit serum linear peptides) / Binding of a rabbit serum to looped/cyclic peptides of protein N of SARS-CoV Urbani (Rabbit serum looped peptides): unit not given here
# [2] = system: antibodies in sera from SARS patients (sera 1a, 1b, 2, 6, 37, 62, London, SARS-yellow, SARS-green); format: binding, human; parameters: Binding of serum 6 to linear peptides of protein X1 of SARS-CoV Urbani / Binding of serum 37 to linear peptides of protein X1 of SARS-CoV Urbani / Binding of serum 6 to looped/cyclic peptide (PEPSCAN-ELISA) / Binding of serum 37 to looped/cyclic peptide (PEPSCAN-ELISA) / Binding of serum 37 to looped/cyclic peptides of protein X1 of SARS-CoV Urbani / Binding of serum 6 to linear peptides of protein X2 / Binding of serum 37 to linear peptides of protein X2 / Binding of serum 37 to looped/cyclic peptides of protein X2 of SARS-CoV Urbani / Binding of serum 6 to linear peptides of protein M of SARS-CoV Urbani / Binding of serum 37 to linear peptides of protein M of SARS-CoV Urbani / Binding of serum 6 to looped/cyclic peptides of protein M of SARS-CoV Urbani / Binding of serum 37 to looped/cyclic peptides of protein M of SARS-CoV Urbani / Binding of serum 6 to linear peptides of protein X3 of SARS-CoV Urbani / Binding of serum 37 to linear peptides of protein X3 of SARS-CoV Urbani / Binding of serum 37 to looped/cyclic peptides of protein X3 of SARS-CoV Urbani / Binding of serum 6 to linear peptides of protein X4 of SARS-CoV Urbani / Binding of serum 37 to linear peptides of protein X4 of SARS-CoV Urbani / Binding of serum 37 to looped/cyclic peptides of protein X4 of SARS-CoV Urbani / Binding of serum 6 to linear peptides of protein X5 of SARS-CoV Urbani / Binding of serum 37 to linear peptides of protein X5 of SARS-CoV Urbani / Binding of serum 37 to looped/cyclic peptides of protein X5 of SARS-CoV Urbani / Binding of serum 6 to linear peptides of protein N of SARS-CoV Urbani / Binding of serum 37 to linear peptides of protein N of SARS-CoV Urbani / Binding of serum 6 to linear peptide (PEPSCAN-ELISA) / Binding of serum 1a to looped/cyclic peptides of protein N of SARS-CoV Urbani / Binding of serum 1b to looped/cyclic peptides of protein N of SARS-CoV Urbani / Binding of serum 2 to looped/cyclic peptides of protein N of SARS-CoV Urbani / Binding of serum 6 to looped/cyclic peptides of protein N of SARS-CoV Urbani / Binding of serum 37 to looped/cyclic peptides of protein N of SARS-CoV Urbani / Binding of serum 62 to looped/cyclic peptides of protein N of SARS-CoV Urbani / Binding of serum London to looped/cyclic peptides of protein N of SARS-CoV Urbani / Binding of serum SARS-green to looped/cyclic peptides of protein N of SARS-CoV Urbani: unit not given here
# [3] = system: control sera (pooled serum of ten healthy LUMC hospital workers; commercial negative donor pooled serum from the Dutch bloodbank); format: binding, human; parameters: Binding of Control serum LUMC to linear peptides / Binding of Control serum Blood-bank to linear peptides / Binding of Control serum LUMC to looped peptides / Binding of Control Serum Blood-Bank to Looped peptides / Binding of Control serum LUMC to linear peptides of the protein M of SARS-CoV Urbani / Binding of Control serum Blood-bank to linear peptides of the protein M of SARS-CoV Urbani / Binding of Control serum LUMC to looped peptides of the protein M of SARS-CoV Urbani / Binding of Control Serum Blood-Bank to Looped peptides of the protein M of SARS-CoV Urbani: unit not given here
Sequence,Binding of Control Serum Blood-Bank to Looped peptides [3],Binding of Control serum Blood-bank to linear peptides [3],Binding of Control serum LUMC to linear peptides [3],Binding of Control serum LUMC to looped peptides [3],Binding of a rabbit serum to linear peptides [1],Binding of a rabbit serum to looped peptides [1],Binding of serum 1a to linear peptides of protein X2 [2],Binding of serum 1a to looped/cyclic peptides of protein X2 of SARS-CoV Urbani [2],Binding of serum 1b to linear peptides of protein X2 [2],Binding of serum 1b to looped/cyclic peptides of protein X2 of SARS-CoV Urbani [2],Binding of serum 2 to linear peptides of protein X2 [2],Binding of serum 2 to looped/cyclic peptides of protein X2 of SARS-CoV Urbani [2],Binding of serum 6 to linear peptides of protein X2 [2],Binding of serum 6 to looped/cyclic peptides of protein X2 of SARS-CoV Urbani [2],Binding of serum 37 to linear peptides of protein X2 [2],Binding of serum 37 to looped/cyclic peptides of protein X2 of SARS-CoV Urbani [2],Binding of serum 62 to linear peptides of protein X2 [2],Binding of serum 62 to looped/cyclic peptides of protein X2 of SARS-CoV Urbani [2],Binding of serum London to linear peptides of protein X2 [2],Binding of serum London to looped/cyclic peptides of protein X2 of SARS-CoV Urbani [2],other results
TLIVFTSCELYHYQE,0.7,0.7,0.8,1.0,,,,,,,,,,,,,,,,,Rabbit serum linear peptides [1]: 0.5; Rabbit serum looped peptides [1]: 0.8; Binding of serum 1a to linear peptides of protein X4 of SARS-CoV Urbani [2]: 0.8; Binding of serum 1a to looped/cyclic peptides of protein X4 of SARS-CoV Urbani [2]: 0.8; Binding of serum 1b to linear peptides of protein X4 of SARS-CoV Urbani [2]: 0.8; Binding of serum 1b to looped/cyclic peptides of protein X4 of SARS-CoV Urbani [2]: 0.8; Binding of serum 2 to linear peptides of protein X4 of SARS-CoV Urbani [2]: 0.5; Binding of serum 2 to looped/cyclic peptides of protein X4 of SARS-CoV Urbani [2]: 0.8; Binding of serum 6 to linear peptides of protein X4 of SARS-CoV Urbani [2]: 0.6; Binding of serum 6 to looped/cyclic peptides of protein X4 of SARS-CoV Urbani [2]: 0.6; Binding of serum 37 to linear peptides of protein X4 of SARS-CoV Urbani [2]: 0.9; Binding of serum 37 to looped/cyclic peptides of protein X4 of SARS-CoV Urbani [2]: 0.9; Binding of serum 62 to linear peptides of protein X4 of SARS-CoV Urbani [2]: 0.9; Binding of serum 62 to looped/cyclic peptides of protein X4 of SARS-CoV Urbani [2]: 0.8; Binding of serum London to linear peptides of protein X4 of SARS-CoV Urbani [2]: 0.8; Binding of serum London to looped/cyclic peptides of protein X4 of SARS-CoV Urbani [2]: 0.3; Binding of serum SARS-green to linear peptides of protein X4 of SARS-CoV Urbani [2]: 1.1; Binding of serum SARS-green to looped/cyclic peptides of protein X4 of SARS-CoV Urbani [2]: 1.0; Binding of serum SARS-yellow to linear peptides of protein X4 of SARS-CoV Urbani [2]: 0.6; Binding of serum SARS-yellow to looped/cyclic peptides of protein X4 of SARS-CoV Urbani [2]: 0.9
TLVLKMLHSSSLTSL,0.9,0.9,0.5,0.7,0.2,0.4,0.7,0.7,0.5,0.6,0.4,0.5,0.4,1.0,0.5,0.5,0.6,0.7,0.4,1.0,Binding of serum SARS-green to linear peptides of protein X2 [2]: 0.4; Binding of serum SARS-green to looped/cyclic peptides of protein X2 of SARS-CoV Urbani [2]: 0.3; Binding of serum SARS-yellow to linear peptides of protein X2 [2]: 0.4; Binding of serum SARS-yellow to looped/cyclic peptides of protein X2 of SARS-CoV Urbani [2]: 0.5
TMSLYMAISPKFTTS,0.8,0.5,0.7,0.8,0.2,0.5,0.5,0.6,0.0,0.6,0.4,0.4,0.3,0.4,0.2,0.5,0.7,0.7,0.4,0.2,Binding of serum SARS-green to linear peptides of protein X2 [2]: 0.5; Binding of serum SARS-green to looped/cyclic peptides of protein X2 of SARS-CoV Urbani [2]: 0.4; Binding of serum SARS-yellow to linear peptides of protein X2 [2]: 0.0; Binding of serum SARS-yellow to looped/cyclic peptides of protein X2 of SARS-CoV Urbani [2]: 0.6
